Results published in paper PMC7822874, “Chemoprotective antimalarials identified through quantitative high-throughput screening of Plasmodium blood and liver stage parasites” (Scientific Reports, 2021).
Read-outs that look alike come from different tables or passages of the source.

Key:
[1] = tested on: Plasmodium falciparum Dd2 asexual blood stage parasites; assay: microbe, parasite or virus in culture; parameters: species or system Plasmodium falciparum Dd2 in human erythrocytes; single determination (one 11-point concentration-response curve); details: Plasmodium falciparum, DD2, Erythrocyte, 72 h; read-out: AC50
[2] = in vitro; details: human
[3] = in vitro; details: human, n = 1
[4] = tested on: P. berghei-ANKA-GFP-LucCON liver stage parasites in HepG2-A16-CD81EGFP cells; assay: P. berghei liver stage Pb-Luc assay, Method 1 (UCSD, 1536-well); format: cell-based, Plasmodium berghei; details: for activity at 1 µM / activity at 3 µM: 48 h, average of 2 wells on a 1536 well plate; for activity at 1 µM: 1 uM (compounds provided at 10 mM); for activity at 3 µM: 3 uM (compounds provided at 10 mM); for Max Resp (signal direction of the dose response) / AC50 / Log AC50 (M): Method 1; for Max Resp (signal direction of the dose response): Decrease = decreasing P. berghei viability with dose, Increase = increasing signal, Inactive = no dose response
[5] = HepG2-A16-CD81EGFP cells, uninfected
[6] = Plasmodium berghei, column 11, read-out: Pb-Luc (P. berghei liver stage), % of control, lower concentration, first repeat
[7] = Plasmodium berghei, column 12, read-out: Pb-Luc (P. berghei liver stage), % of control, lower concentration, second repeat
[8] = Plasmodium berghei, column 8, read-out: Pb-Luc (P. berghei liver stage), % of control, higher concentration, first repeat
[9] = Plasmodium berghei, column 9, read-out: Pb-Luc (P. berghei liver stage), % of control, higher concentration, second repeat
[10] = Hill fit, 50% of maximum activity response, read-out: AC50
[11] = log10 of molar AC50 from Hill fit
[12] = Plasmodium berghei, Hill fit, 50% of maximum activity response, read-out: AC50
[13] = Plasmodium berghei, log10 of molar AC50 from Hill fit, read-out: Log AC50 (converted)

Row | Structure (SMILES) | AC50 [1] [µM] | viability at 48 h, 1 µM [2, 5] [%] | viability at 48 h, 3 µM [2, 5] [%] | CC50 at 48 h ([3]; HepG2 cells) [µM] | also measured
1 | Oc1cc(Nc2ccc(N3CCCCC3)cc2)cc2cccnc12 [NCGC00183804-01] | 0.841 | 105 | 94 | 17.2 | –
2 | O=C(Nc1nc(-c2ccccn2)cs1)c1cccc(S(=O)(=O)N2CCOCC2)c1 [MLS002161290-01] | 5.96 | 98 | 60 | 9.68 | activity at 1 µM [4, 6]: 17%; activity at 1 µM [4, 7]: 16%; activity at 3 µM [4, 8]: 7%; activity at 3 µM [4, 9]: 7%
3 | COc1cnc(-c2ccccn2)nc1Sc1c(Cl)cccc1Cl [MLS000325774-01] | 2.99 | 106 | 99 | 24.3 | –
4 | CCCN(CCC)c1nc(-c2ccccn2)nc2ccccc12 [MLS001165172-01] | 5.31 | 112 | 90 | 9.68 | activity at 1 µM [4, 6]: 92%; activity at 1 µM [4, 7]: 102%; activity at 3 µM [4, 8]: 8%; activity at 3 µM [4, 9]: 7%
5 | Cc1ccc(Cl)cc1NC(=O)c1cc2ccccc2cc1O [MLS000738149-01] | 1.5 | – | – | – | activity at 1 µM [4, 6]: 92%; activity at 1 µM [4, 7]: 94%; activity at 3 µM [4, 8]: 38%; activity at 3 µM [4, 9]: 81%; viability at 48 h, 1 µM [2]: 104%; viability at 48 h, 3 µM [2]: 69%; CC50 at 48 h ([3]; hepg2): 21.7 µM
6 | O=C1C(Nc2ccccc2)=C/C(=N\S(=O)(=O)c2cccs2)c2ccccc21 [MLS000374486-01] | 0.335 | 101 | 76 | 12.2 | –
7 | Cc1ccc(NCC(=O)Nc2cccc(F)c2)cc1S(=O)(=O)N1CCCCCC1 [MLS001128515-01] | – | 93 | 83 | 27.3 | –
8 | N=c1ccn(Cc2ccc(Cl)c(Cl)c2)cc1 [MLS000080112-01] | 6.68 | – | – | 30.6 | Max Resp (signal direction of the dose response) [4]: Decrease; AC50 [4, 10]: 1.58 µM; Log AC50 (M) [4, 11]: -5.800 M; AC50 [4, 12]: 1.41 µM; AC50 [4, 13]: 1.41 µM; viability at 66 h [2, 5]: 99.6%
9 | CCNC(S)=N/N=C/c1sc(N2CCCCC2)nc1-c1cccs1 [MLS000335256-01] | 0.668 | – | – | 15.3 | viability at 66 h [2, 5]: 103%
10 | C/C(=N\NC(=O)c1ccccc1OCc1ccc(F)cc1)c1ccccn1 [MLS002162875-01] | 4.73 | 105 | 79 | 17.2 | –
11 | CCN1CCN(c2ccc(Nc3ccnc4ccccc34)cc2)CC1 [MLS001360577-01] | 1.06 | 95 | 91 | 17.2 | –
12 | c1ccc(CNc2nc(-c3ccccn3)nc3ccccc23)cc1 [MLS001165148-01] | 5.31 | 93 | 87 | 10.9 | –
13 | CC(=O)N(C)C1=C(N2CCOCC2)C(=O)c2ccccc2C1=O [MLS000570886-01] | 0.841 | – | – | 10.9 | Max Resp (signal direction of the dose response) [4]: Decrease; AC50 [4, 10]: 1.58 µM; Log AC50 (M) [4, 11]: -5.800 M; AC50 [4, 12]: 1.26 µM; AC50 [4, 13]: 1.26 µM; viability at 66 h [2, 5]: 92.5%
14 | c1ccc(-c2cccc(-c3ccccn3)n2)nc1 [MLS000048666-01] | – | – | – | – | viability at 66 h [2]: 17.7%; CC50 at 48 h ([3]; hepg2): 15.3 µM
15 | Oc1ccc(-c2nnc(S)n2-c2ccc3c(c2)OCCO3)c(O)c1 [MLS000332001-01] | 2.66 | 98 | 95 | 17.2 | –
16 | COc1cc(NC2CCCCC2O)c2nc(-c3ccc(Cl)cc3)ccc2c1 (centres unmarked) [MLS000766166-01] | 5.31 | 111 | 101 | 13.7 | –
17 | O=C(Nc1ccc([N+](=O)[O-])cc1)Nc1nc(-c2ccc(Cl)s2)cs1 [MLS000722351-01] | 2.99 | – | – | 13.7 | Max Resp (signal direction of the dose response) [4]: Decrease; AC50 [4, 10]: 0.224 µM; Log AC50 (M) [4, 11]: -6.650 M; AC50 [4, 12]: 0.178 µM; AC50 [4, 13]: 0.178 µM; viability at 66 h [2, 5]: 90%
18 | O=C1Nc2ccccc2C1=NN=C(S)N1CCOCC1 [MLS000778251-01] | 2.11 | – | – | 15.3 | Max Resp (signal direction of the dose response) [4]: Decrease; AC50 [4, 10]: 0.316 µM; Log AC50 (M) [4, 11]: -6.500 M; AC50 [4, 12]: 0.251 µM; AC50 [4, 13]: 0.251 µM; viability at 66 h [2, 5]: 86.1%
19 | O=S(=O)(Nc1cc2nc3ccccc3nc2n1Cc1ccccc1)c1ccc(Cl)cc1 [MLS002583111-01] | 1.19 | – | – | 19.3 | viability at 66 h [2, 5]: 103%
20 | CN(C)CCCn1cnc2c(c1=N)C(c1ccccc1)c1ccc3ccccc3c1O2 (centres unmarked) [MLS001216375-01] | 3.76 | 111 | 110 | 30.6 | –
21 | CC(C)Nc1ccc(Nc2ccnc3cc4ccccc4cc23)cc1 [MLS000766754-01] | – | 114 | 78 | 27.3 | activity at 1 µM [4, 6]: 101%; activity at 1 µM [4, 7]: 80%; activity at 3 µM [4, 8]: 10%; activity at 3 µM [4, 9]: 14%
